This note sets out measurements from patent US20250221979A1, “NOVEL HETEROCYCLIC COMPOUND” (SHOUYAO HOLDINGS (BEIJING) CO., LTD., priority 2022, published 2025).

SMILES strings stand for the structures.

Chain of human MAT2A enzyme (P31153 whole entry): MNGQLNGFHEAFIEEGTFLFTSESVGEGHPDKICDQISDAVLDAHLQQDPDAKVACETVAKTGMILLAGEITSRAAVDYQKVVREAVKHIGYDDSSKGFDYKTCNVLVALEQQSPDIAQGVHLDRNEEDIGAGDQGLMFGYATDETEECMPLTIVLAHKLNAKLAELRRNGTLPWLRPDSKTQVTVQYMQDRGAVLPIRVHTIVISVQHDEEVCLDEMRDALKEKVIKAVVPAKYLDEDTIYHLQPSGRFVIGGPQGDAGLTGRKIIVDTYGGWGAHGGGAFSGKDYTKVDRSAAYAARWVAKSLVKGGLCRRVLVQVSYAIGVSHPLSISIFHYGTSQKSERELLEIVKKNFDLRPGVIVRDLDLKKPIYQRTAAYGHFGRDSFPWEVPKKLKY

This assay has as its target human MAT2A enzyme (Homo sapiens (Human), UniProt P31153). Briefly: In vitro enzymatic inhibition activity assay on MAT2A (PiColorLock phosphate detection). Format: biochemical. The note with it: purified human MAT2A 10 nM, ATP 50 μM, L-methionine 100 μM, 6 h at 23° C.; read-out: MAT2A inhibitory activity IC50. In a few lines: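 IC50 came from an 8-point, 10-fold compound series that reduced phosphate release, measured by absorbance at 630 nm. Reactions ran 6 h at 23 °C with 10 nM human MAT2A, 50 μM ATP and 100 μM L-methionine in pH 7.5 Tris buffer containing Mg2+.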
Consider `COC(=O)c1c(N)c2ccc(C(F)(F)F)nc2n(-c2cnc(Cl)cc2C)c1=O` [Example 204, methyl 4-amino-1-(6-chloro-4-methylpyridin-3-yl)-2-oxo-7-(trifluoromethyl)-1,2-dihydro-1,8-naphthyridine-3-carboxylate], for which the concentration for half-maximal inhibition (IC50) (usually the concentration that gives 50% inhibition) amounted to 4.62 nM.

Regarding `COC(=O)c1c(N)c2ccc(C(F)(F)F)cc2n(-c2ccc(OC)cc2F)c1=O` [Example 97, methyl 4-amino-1-(2-fluoro-4-methoxyphenyl)-2-oxo-7-(trifluoromethyl)-1,2-dihydroquinoline-3-carboxylate], the IC50 was determined as 9.95 nM.

On to `[2H]C([2H])([2H])OC(=O)c1c(N)c2ccc(OC(F)F)cc2n(-c2ccc(N)cc2C)c1=O` [Example 429, methyl-d3 4-amino-1-(2-methyl-4-aminophenyl)-7-(difluoromethoxy)-2-oxo-1,2-dihydroquinolin-3-carboxylate], for which the half-maximal inhibitory concentration (IC50) was found to be 1.15 nM.

Regarding `[2H]C([2H])([2H])OC(=O)c1c(N)c2ccc(OC(F)(F)F)cc2n(-c2ccc(N)cc2)c1=O` [Example 391, methyl-d3 4-amino-1-(4-aminophenyl)-2-oxo-7-(trifluoromethoxy)-1,2-dihydroquinoline-3-carboxylate], the half-maximal inhibitory concentration (IC50) worked out at 1.31 nM.

As for `COC(=O)c1c(N)c2ccc(C(F)(F)F)nc2n(-c2cccc3c(C)nccc23)c1=O` [Example 319, methyl 4-amino-1-(1-methylisoquinolin-5-yl)-2-oxo-7-(trifluoromethyl)-1,2-dihydro-1,8-naphthyridine-3-carboxylate], the IC50 amounted to 1.2 nM.

With `COC(=O)c1c(N)c2c(F)cc(Br)cc2n(-c2ccc(N)cc2)c1=O` [Example 339, methyl 4-amino-1-(4-aminophenyl)-7-bromo-5-fluoro-2-oxo-1,2-dihydroquinoline-3-carboxylate], the concentration for half-maximal inhibition (IC50) was 2.3 nM.

Turning to `COC(=O)c1c(N)c2ccc(I)cc2n(-c2ccccc2Cl)c1=O` [Example 20, methyl 4-amino-7-iodo-1-(2-chlorophenyl)-2-oxo-1,2-dihydroquinoline-3-carboxylate], the IC50 was found to be 5.98 nM.

Take `COC(=O)c1c(N)c2ccc(C(F)(F)F)nc2n(-c2ccc(C(C)O)cc2)c1=O` (stereo not shown) [Example 303, methyl 4-amino-1-(4-(1-hydroxyethyl)phenyl)-2-oxo-7-(trifluoromethyl)-1,2-dihydro-1,8-naphthyridine-3-carboxylate]: the IC50 amounted to 0.92 nM.

Regarding `COC(=O)c1c(N)c2ccc(Br)nc2n(-c2cccc3c(C)nccc23)c1=O` [Example 290, methyl 4-amino-1-(1-methylisoquinolin-5-yl)-7-bromo-2-oxo-1,2-dihydro-1,8-naphthyridine-3-carboxylate], the 50% inhibitory concentration (IC50) came out at 0.79 nM.

Regarding `COC(=O)c1c(N)c2ccc(I)cc2n(-c2ccc3ccncc3c2)c1=O` [Example 242, methyl 4-amino-7-iodo-1-(isoquinolin-7-yl)-2-oxo-1,2-dihydroquinoline-3-carboxylate], the half-maximal inhibitory concentration (IC50) amounted to 1.26 nM.

For the compound `COC(=O)c1c(N)c2ccc(C(F)(F)F)cc2n(-c2ccc3c(c2)C(O)CC3)c1=O` (stereo not shown) [Example 137, methyl 4-amino-1-(3-hydroxy-2,3-dihydro-1H-inden-5-yl)-2-oxo-7-(trifluoromethyl)-1,2-dihydroquinoline-3-carboxylate], the half-inhibitory concentration (IC50) is 3.34 nM.

Turning to `COC(=O)c1c(N)c2ccc(C(F)(F)F)nc2n(-c2ccccc2)c1=O` [Example 150, methyl 4-amino-2-oxo-1-phenyl-7-(trifluoromethyl)-1,2-dihydro-1,8-naphthyridine-3-carboxylate], the IC50 is 1.66 nM.

As to `COC(=O)c1c(N)c2ccc(C(F)(F)F)cc2n(-c2ccccc2Cl)c1=O` [Example 69, methyl 4-amino-1-(2-chlorophenyl)-2-oxo-7-(trifluoromethyl)-1,2-dihydro quinoline-3-carboxylate], the half-inhibitory concentration (IC50) was 6.39 nM.

As for `C=Cc1ccc2c(N)c(C(=O)OC)c(=O)n(-c3cccc4cnccc34)c2c1` [Example 185, methyl 4-amino-1-(isoquinolin-5-yl)-2-oxo-7-vinyl-1,2-dihydroquinoline-3-carboxylate], the IC50 worked out at 8.94 nM.

As for `CCc1ccc(-n2c(=O)c(C(=O)OC)c(N)c3ccc(C(F)(F)F)cc32)cc1` [Example 155, methyl 4-amino-1-(4-ethylphenyl)-2-oxo-7-(trifluoromethyl)-1,2-dihydroquinoline-3-carboxylate], the IC50 came out at 1.93 nM.

Take `COC(=O)c1c(N)c2ccc(C(F)(F)F)cc2n(-c2ccc(C)cc2C)c1=O` [Example 149, methyl 4-amino-1-(2,4-dimethylphenyl)-2-oxo-7-(trifluoromethyl)-1,2-dihydroquinoline-3-carboxylate]: the half-inhibitory concentration (IC50) was determined as 3.12 nM.

Regarding `CCOC(=O)c1c(N)c2ccc(C(F)(F)F)cc2n(-c2ccc([C@@H](C)O)cc2)c1=O` [Example 330, ethyl 4-amino-1-(4-(1-(R)-hydroxyethyl)phenyl)-2-oxo-7-(trifluoromethyl)-1,2-dihydroquinoline-3-carboxylate], the IC50 came out at 0.92 nM.

With `COC(=O)c1c(N)c2ccc(C3CC3)nc2n(-c2ccc(C)nc2)c1=O` [Example 377, methyl 4-amino-7-cyclopropyl-1-(6-methylpyridin-3-yl)-2-oxopyrido[2,3-b]pyridin-3-carboxylate], the IC50 was found to be 1.89 nM.

On to `COC(=O)c1c(N)c2ccc(C(F)F)nc2n(-c2ccc(C(C)O)cc2)c1=O` (stereo not shown) [Example 366, methyl 4-amino-7-(difluoromethyl)-1-(4-(1-hydroxyethyl)phenyl)-2-oxo-1,2-dihydro-1,8-naphthyridine-3-carboxylate], for which the IC50 is 1 nM.

Consider `COC(=O)c1c(N)c2ccc(Br)nc2n(-c2ccc(N)cc2Cl)c1=O` [Example 295, methyl 4-amino-1-(4-amino-2-chlorophenyl)-2-oxo-7-bromo-1,2-dihydro-1,8-naphthyridine-3-carboxylate], for which the IC50 is 0.89 nM.

Take `COC(=O)c1c(N)c2ccc(C(F)(F)F)cc2n(-c2ccc(OC)nc2)c1=O` [Example 212, methyl 4-amino-1-(6-methoxypyridin-3-yl)-2-oxo-7-(trifluoromethyl)-1,2-dihydroquinoline-3-carboxylate]: the IC50 came out at 2.83 nM.

`COC(=O)c1c(N)c2ccc(Br)cc2n(-c2ccc(Cl)cc2)c1=O` [Example 91, methyl 4-amino-7-bromo-1-(4-chlorophenyl)-2-oxo-1,2-dihydroquinoline-3-carboxylate]: the concentration for half-maximal inhibition (IC50) worked out at 0.93 nM.

Turning to `COC(=O)c1c(N)c2ccc(C(F)(F)F)cc2n(-c2ccc3occc3c2)c1=O` [Example 196, methyl 4-amino-1-(6-benzofuran-5-yl)-2-oxo-7-(trifluoromethyl)-1,2-dihydro quinoline-3-carboxylate], the IC50 is 0.81 nM.

For `COC(=O)c1c(N)c2ccc(C(F)(F)F)cc2n(-c2ccc(Br)cc2)c1=O` [Example 81, methyl 4-amino-1-(4-bromophenyl)-2-oxo-7-(trifluoromethyl)-1,2-dihydro quinoline-3-carboxylate], the IC50 was determined as 1.68 nM.

With `COC(=O)c1c(N)c2ccc(Cl)nc2n(-c2cccc3cnccc23)c1=O` [Example 201, methyl 4-amino-7-chloro-1-(isoquinolin-5-yl)-2-oxo-1,2-dihydro-1,8-naphthyridine-3-carboxylate], the 50% inhibitory concentration (IC50) stood at 5.38 nM.

Consider `Cc1ccccc1-n1c(=O)c(C(=O)OC2CC2)c(N)c2ccc(I)cc21` [Example 52, cyclopropyl 4-amino-7-iodo-1-(2-methylphenyl)-2-oxo-1,2-dihydroquinolin-3-carboxylate], for which the IC50 worked out at 2.38 nM.

As for `COC(=O)c1c(N)c2ccc(C(F)(F)F)cc2n(-c2ccc([C@H](C)O)cc2)c1=O` [Example 271, methyl 4-amino-1-(4-(1-(S)-hydroxyethyl)phenyl)-2-oxo-7-(trifluoromethyl)-1,2-dihydroquinoline-3-carboxylate], the IC50 was 1.83 nM.

With `C#Cc1ccc(-n2c(=O)c(C(=O)OC)c(N)c3ccc(C(F)(F)F)cc32)cc1` [Example 133, methyl 4-amino-1-(4-ethynylphenyl)-2-oxo-7-(trifluoromethyl)-1,2-dihydroquinoline-3-carboxylate], the IC50 was 2.79 nM.

On to `COC(=O)c1c(N)c2ccc(C(C)(F)F)cc2n(-c2ccc([C@@H](C)O)cc2)c1=O` [Example 358, methyl 4-amino-7-(1,1-difluoroethyl)-1-(4-((1R)-1-hydroxyethyl)phenyl)-2-oxo-1,2-dihydroquinoline-3-carboxylate], for which the IC50 stood at 1.36 nM.

In the case of `COC(=O)c1c(N)c2ccc(C(F)(F)F)nc2n(-c2ccc(N)nc2C)c1=O` [Example 308, methyl 4-amino-1-(6-amino-2-methylpyridin-3-yl)-2-oxo-7-(trifluoromethyl)-1,2-dihydro-1,8-naphthyridine-3-carboxylate], the IC50 was determined as 2.42 nM.

As for `[2H]C([2H])([2H])OC(=O)c1c(N)c2ccc(C(F)(F)F)nc2n(-c2ccc(C(C)O)cc2)c1=O` (stereo not shown) [Example 310, methyl-d3 4-amino-1-(4-(1-hydroxyethyl)phenyl)-2-oxo-7-(trifluoromethyl)-1,2-dihydro-1,8-naphthyridine-3-carboxylate], the IC50 was 0.74 nM.

For `COC(=O)c1c(N)c2ccc(Br)cc2n(-c2ccc(OC(F)F)cc2)c1=O` [Example 83, methyl 4-amino-7-bromo-1-(4-((difluoromethyl)oxy)phenyl)-2-oxo-1,2-dihydroquinoline-3-carboxylate], the IC50 worked out at 1.21 nM.

Take `COC(=O)c1c(N)c2ccc(C(F)(F)F)cc2n(-c2ccc3sccc3c2)c1=O` [Example 153, methyl 4-amino-1-(benzo[b]thiophen-5-yl)-2-oxo-7-(trifluoromethyl)-1,2-dihydroquinoline-3-carboxylate]: the half-maximal inhibitory concentration (IC50) came out at 2.62 nM.

`COC(=O)c1c(N)c2ccc(C(F)(F)F)cc2n(-c2ccc(OC)cc2)c1=O` [Example 25, methyl 4-amino-1-(4-methoxyphenyl)-2-oxo-7-(trifluoromethyl)-1,2-dihydro quinoline-3-carboxylate]: the half-maximal inhibitory concentration (IC50) was 0.43 nM.
